Results from ChEMBL document CHEMBL1828555, “Primary amino acid derivatives: substitution of the 4'-N'-benzylamide site in (R)-N'-benzyl 2-amino-3-methylbutanamide, (R)-N'-benzyl 2-amino-3,3-dimethylbutanamide, and (R)-N'-benzyl 2-amino-3-methoxypropionamide provides potent anticonvulsants with pain-attenuating properties” (J Med Chem, 2011).
Activity calls are given as the source filed them. The rule behind the calls is not given here.

How the values were obtained:
[1] = test system: Mus musculus; assay: Anticonvulsant activity in ip dosed albino CF1 mouse assessed as protection against maximal electroshock-induced seizure after 30 mins; assay type: functional; details: 0.5 h
[2] = test system: Mus musculus; assay: Anticonvulsant activity in ip dosed albino CF1 mouse assessed as protection against 6 Hz psychomotor seizure after 30 mins; assay type: functional; details: 0.5 h
[3] = test system: Mus musculus; assay: Analgesic activity in ip dosed albino CF1 mouse assessed as reduction of formalin-induced neuropathic pain after 30 mins; assay type: functional; details: 0.5 h
[4] = Neurotoxicity in ip dosed albino CF1 mouse assessed as median neurological impairing dose after 30 mins; assay type: toxicity, organism-based; details: in vivo
[5] = test system: Mus musculus; assay: Protective index, ratio of TD50 for ip dosed albino CF1 mouse to ED50 for ip dosed albino CF1 mouse by maximal electroshock test; assay type: functional
[6] = test system: Rattus norvegicus; assay: Anticonvulsant activity in po dosed albino Sprague-Dawley rat assessed as protection against maximal electroshock seizure; assay type: functional
[7] = Toxicity in po dosed albino Sprague-Dawley rat assessed as behavioural toxicity; assay type: organism-based; details: in vivo
[8] = test system: Mus musculus; assay: Anticonvulsant activity in ip dosed albino CF1 mouse assessed as protection against subcutaneous pentylenetetrazol-induced seizure; assay type: functional, organism-based
[9] = test system: Mus musculus; assay: Anticonvulsant activity in ip dosed albino CF1 mouse assessed as time of peak effect for protection against maximal electroshock-induced seizure; assay type: functional
[10] = test system: Mus musculus; assay: Anticonvulsant activity in ip dosed albino CF1 mouse assessed as time of peak effect for protection against 6 Hz psychomotor seizure; assay type: functional
[11] = test system: Mus musculus; assay: Analgesic activity in ip dosed albino CF1 mouse assessed as time of peak effect for reduction of formalin-induced neuropathic pain; assay type: functional
[12] = test system: Mus musculus; assay: Neurotoxicity in ip dosed albino CF1 mouse assessed as time of peak effect for median neurological impairing; assay type: toxicity, organism-based; details: in vivo
[13] = test system: Rattus norvegicus; assay: Anticonvulsant activity in po dosed albino Sprague-Dawley rat assessed as time of peak effect for protection against maximal electroshock seizure; assay type: functional
[14] = test system: Rattus norvegicus; assay: Toxicity in po dosed albino Sprague-Dawley rat assessed as time of peak effect for behavioural toxicity; assay type: organism-based; details: in vivo
[15] = test system: Mus musculus; assay: Anticonvulsant activity in ip dosed NMRI mouse assessed as protection against maximal electroshock seizure after 30 mins; assay type: functional; details: 0.5 h
[16] = test system: Mus musculus; assay: Anticonvulsant activity in ip dosed 6 Hz psychomotor seizure model of NMRI mouse assessed as minimal active dose after 30 mins; assay type: functional
[17] = test system: Mus musculus; assay: Analgesic activity in ip dosed NMRI mouse assessed as reduction in formalin-induced neuropathic pain after 30 mins; assay type: functional; details: 0.5 h
[18] = test system: Rattus norvegicus; assay: Protective index, ratio of TD50 for po dosed albino Sprague-Dawley rat to ED50 for po dosed albino Sprague-Dawley rat by maximal electroshock test; assay type: functional
[19] = test system: Mus musculus; assay: Anticonvulsant activity in ip dosed 6 Hz psychomotor seizure model of NMRI mouse assessed as protection against seizure after 30 minutes; assay type: functional; details: 0.5 h
[20] = test system: Mus musculus; assay: Analgesic activity in NMRI mouse assessed as reduction in formalin-induced neuropathic pain at 37 mg/kg, ip; assay type: functional; parameters: scale not given: the % may be the effect or the level left; details: route intraperitoneal
[21] = Neurotoxicity in ip dosed NMRI mouse assessed as median neurological impairing dose after 30 mins by rotarod test; assay type: toxicity, organism-based; details: in vivo
[22] = test system: Mus musculus; assay: Protective index, ratio of TD50 for ip dosed NMRI mouse to ED50 for ip dosed NMRI mouse by maximal electroshock test; assay type: functional
[23] = test system: Mus musculus; assay: Analgesic activity in NMRI mouse assessed as reduction in formalin-induced neuropathic pain at 12 mg/kg, ip; assay type: functional, organism-based; parameters: dose 12 mg/kg
[24] = test system: Mus musculus; assay: Anticonvulsant activity in ip dosed maximal electroshock seizure model of NMRI mouse assessed as minimal active dose after 30 mins; assay type: functional
[25] = test system: Mus musculus; assay: Protective index, ratio of TD50 for ip dosed NMRI mouse to ED50 for ip dosed formalin-induced neuropathic pain model of NMRI mouse; assay type: functional
[26] = test system: Mus musculus; assay: Analgesic activity in NMRI mouse assessed as reduction in formalin-induced neuropathic pain at 110 mg/kg, ip; assay type: functional; parameters: scale not given: the % may be the effect or the level left; details: route intraperitoneal

CC(C)(C)[C@@H](N)C(=O)NCc1ccc(Cl)cc1
ED50 [1]: 25 mg/kg | ED50 [2]: < 100 mg/kg | ED50 [3]: 25 mg/kg | TD50 at 0.5 h [4]: 84 mg/kg | Ratio TD50/ED50 [5]: 3.4 | ED50 [6]: 30 mg/kg | TD50 [7]: > 30 mg/kg | Activity [8]: inactive | Time [9]: 0.25 h | Time [10]: 0.25 h | Time [11]: 0.25 h | Time [12]: 0.5 h | Time [13]: 0.25 h | Time [14]: 0.25 h

COC[C@@H](N)C(=O)NCc1ccc(-c2ccccc2)cc1.Cl
ED50 [15]: 15 mg/kg | MAC [16]: 59 mg/kg | ED50 [17]: > 33 mg/kg | Activity [8]: inactive

COC[C@@H](N)C(=O)NCc1ccc(COc2cccc(F)c2)cc1
ED50 [1]: 10 mg/kg | ED50 [2]: < 30 mg/kg | TD50 at 0.5 h [4]: 30 mg/kg | ED50 [6]: 12 mg/kg | TD50 [7]: > 500 mg/kg | Ratio TD50/ED50 [18]: >42 | ED50 [15]: 8.9 mg/kg | ED50 [19]: 58 mg/kg | Activity [20]: 94% | TD50 at 0.5 h [21]: 46 mg/kg | Ratio TD50/ED50 [22]: 5.4 | Activity [8]: inactive | Time [9]: 0.5 h | Time [12]: 0.5 h | Time [13]: 0.5 h | Activity [23]: inactive

CC(C)[C@@H](N)C(=O)NCc1ccccc1
ED50 [1]: 15 mg/kg | ED50 [2]: < 100 mg/kg | ED50 [3]: 15 mg/kg | TD50 at 0.5 h [4]: 70 mg/kg | Ratio TD50/ED50 [5]: 4.8 | ED50 [6]: 11 mg/kg | TD50 [7]: > 500 mg/kg | Ratio TD50/ED50 [18]: >45 | MAC [24]: 16 mg/kg | ED50 [19]: 74 mg/kg | ED50 [17]: 20 mg/kg | TD50 at 0.5 h [21]: 47 mg/kg | Ratio TD50/ED50 [22]: 2.9 | Time [9]: 0.25 h | Time [10]: 0.25 h | Time [11]: 0.25 h | Time [12]: 0.25 h | Time [13]: 0.25 h

COC[C@@H](N)C(=O)NCc1ccc(Br)cc1.Cl
ED50 [15]: 31 mg/kg | ED50 [19]: > 180 mg/kg | ED50 [17]: 70 mg/kg | TD50 at 0.5 h [21]: 115 mg/kg | Ratio TD50/ED50 [22]: 3.7 | Ratio TD50/ED50 [25]: 1.6 | Activity [8]: inactive

CC(C)[C@@H](N)C(=O)NCc1ccc(F)cc1
ED50 [1]: 32 mg/kg | ED50 [2]: 63 mg/kg | ED50 [3]: 32 mg/kg | TD50 at 0.5 h [4]: 97 mg/kg | Ratio TD50/ED50 [5]: 3 | ED50 [6]: 21 mg/kg | TD50 [7]: > 500 mg/kg | Ratio TD50/ED50 [18]: >24 | Activity [8]: inactive | Time [9]: 0.25 h | Time [10]: 0.25 h | Time [11]: 0.25 h | Time [12]: 0.25 h | Time [13]: 0.5 h

CC(C)[C@@H](N)C(=O)NCc1ccc(OCc2cccc(F)c2)cc1
ED50 [15]: 12 mg/kg | ED50 [19]: > 110 mg/kg | Activity [26]: 80% | Activity [8]: inactive

CC(C)[C@@H](N)C(=O)NCc1ccc(OC(F)(F)F)cc1
ED50 [1]: 16 mg/kg | ED50 [2]: 28 mg/kg | ED50 [3]: 16 mg/kg | TD50 at 0.5 h [4]: 84 mg/kg | Ratio TD50/ED50 [5]: 5.3 | ED50 [6]: 18 mg/kg | TD50 [7]: > 500 mg/kg | Ratio TD50/ED50 [18]: >27 | Activity [8]: inactive | Time [9]: 0.25 h | Time [10]: 0.5 h | Time [11]: 0.25 h | Time [12]: 0.25 h | Time [13]: 1 h
